Data from the NIST ThermoML archive (doi:10.1021/je2010038).

Test: xn = mol fraction of the nth substance listed
Settings: Liquid, Vibrating tube method

NCCO [2-aminoethan-1-ol] + O
mass density [kg/m3]
Settings	x1 = 0.1122	x1 = 0.1643	x1 = 0.2278	x1 = 0.3067	x1 = 0.4077	x1 = 0.5412	x1 = 0.7264	x1 = 1
333.15 K, 101 kPa	–	–	–	–	1000.8	998.2	992.7	983.9
338.15 K, 101 kPa	989.5	992.7	995.4	997.1	997	994.2	988.7	979.8
343.15 K, 101 kPa	986.1	989.4	991.9	993.2	993.1	990.2	984.6	975.8
348.15 K, 101 kPa	983	985.9	988.3	989.5	989.2	986.2	980.6	971.6
353.15 K, 101 kPa	979.4	982.4	984.5	985.6	985.2	982.1	976.5	967.5
358.15 K, 101 kPa	976.1	978.7	980.8	981.8	981.2	978	972.3	963.4
363.15 K, 101 kPa	972.5	975	976.9	977.7	977.1	973.9	968.1	959.2
373.1 K, 700 kPa	965.3	967.2	969	969.4	968.5	965.3	959.3	950.9
383.15 K, 700 kPa	957.4	959.1	960.6	960.8	959.8	956.5	950.6	942.3
393.15 K, 700 kPa	949.1	950.7	952	952.1	950.9	947.6	941.7	933.5
403.15 K, 700 kPa	940.6	941.9	943.1	943.1	941.9	938.6	932.7	924.7
413.15 K, 700 kPa	931.7	932.9	934	933.8	932.6	929.3	923.6	915.7
423.15 K, 700 kPa	922.3	923.3	924.3	924.1	922.8	919.5	914.1	906.4
